Assay results from the supplement of paper PMC11451515.

Experiments:
Conditions in all cases: 48 h
[1] = tested on: NOMO1; assay: AUC of viability dose-response curve (% viability x log10 dose units); higher = less sensitive
Method in brief: (§1)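 Seeding of medium-adapted leukemia cells was at 500 or 1000 cells/well in 1536-well plates, followed by 48 h at 37°C with library compounds in DMSO at 11 threefold doses from 47 μM to 0.79 nM. CellTiter-Glo One luminescence was normalised per plate to DMSO and cell-free wells and fitted as a four-parameter log-logistic function of log10 dose. Area under the curve was integrated by trapezoidal rule, with curves exceeding full viability scaled and curves failing quality control removed.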

[2] = tested on: SEM cells; assay: as above
Method in brief: as §1

[3] = tested on: P12-Ichikawa; assay: as above
Method in brief: as §1

[4] = tested on: NOMO1; assay: cell viability relative to DMSO control; higher = less cytotoxic
Method in brief: (§2)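 NOMO1 or SEM (500 cells/well) or P12-Ichikawa (1000 cells/well) leukemia cells were adapted for at least four passages in each medium. They were seeded in 1536-well plates (5 μl) and pin-dosed with library compounds in DMSO over an 11-point threefold series, 47 μM to 0.79 nM. CellTiter-Glo One luminescence was read after 48 h at 37°C. Viability is the per-plate percentage relative to DMSO wells, with cell-free wells as background.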

[5] = tested on: SEM cells; assay: as above
Method in brief: as §2

[6] = tested on: P12-Ichikawa; assay: as above
Method in brief: as §2

Nc1ccc([S+](=O)([O-])Nc2ccnn2-c2ccccc2)cc1
AUC of viability dose-response curve
Conditions | [1] | [2] | [3]
HPLM + 10% dialyzed FBS | 446 | 444 | 470
RPMI 5 mM glucose + 10% FBS | 467 | 452 | 455
RPMI 5 mM glucose + 10% dialyzed FBS | 451 | 440 | 464

cell viability [%]
Conditions | [4] | [5] | [6]
HPLM + 10% dialyzed FBS, 0.000781 µM | 85.1 | 76.6 | 105
HPLM + 10% dialyzed FBS, 0.00234 µM | 97.6 | 89.9 | 103
HPLM + 10% dialyzed FBS, 0.00702 µM | 104 | 80.9 | 103
HPLM + 10% dialyzed FBS, 0.0211 µM | 101 | 97.8 | 109
HPLM + 10% dialyzed FBS, 0.0632 µM | 108 | 87.8 | 111
HPLM + 10% dialyzed FBS, 0.19 µM | 98.6 | 98.8 | 102
HPLM + 10% dialyzed FBS, 0.569 µM | 100 | 109 | 105
HPLM + 10% dialyzed FBS, 1.71 µM | 98.3 | 95.5 | 106
HPLM + 10% dialyzed FBS, 5.12 µM | 107 | 94.8 | 105
HPLM + 10% dialyzed FBS, 15.4 µM | 102 | 93.8 | 110
HPLM + 10% dialyzed FBS, 46.1 µM | 113 | 93 | 107
RPMI 5 mM glucose + 10% FBS, 0.000781 µM | 84.7 | 89.4 | 95.9
RPMI 5 mM glucose + 10% FBS, 0.00234 µM | 98.5 | 92.8 | 101
RPMI 5 mM glucose + 10% FBS, 0.00702 µM | 97.8 | 105 | 98.3
RPMI 5 mM glucose + 10% FBS, 0.0211 µM | 105 | 102 | 96
RPMI 5 mM glucose + 10% FBS, 0.0632 µM | 98.9 | 88.8 | 108
RPMI 5 mM glucose + 10% FBS, 0.19 µM | 97 | 98.2 | 115
RPMI 5 mM glucose + 10% FBS, 0.569 µM | 99.4 | 114 | 108
RPMI 5 mM glucose + 10% FBS, 1.71 µM | 95.6 | 102 | 106
RPMI 5 mM glucose + 10% FBS, 5.12 µM | 102 | 89 | 100
RPMI 5 mM glucose + 10% FBS, 15.4 µM | 94.1 | 96.2 | 109
RPMI 5 mM glucose + 10% FBS, 46.1 µM | 96.8 | 116 | 107
RPMI 5 mM glucose + 10% dialyzed FBS, 0.000781 µM | 81.4 | 95.1 | 86.1
RPMI 5 mM glucose + 10% dialyzed FBS, 0.00234 µM | 90.1 | 89.5 | 98.7
RPMI 5 mM glucose + 10% dialyzed FBS, 0.00702 µM | 91.8 | 104 | 97.7
RPMI 5 mM glucose + 10% dialyzed FBS, 0.0211 µM | 95.1 | 86.2 | 92.9
RPMI 5 mM glucose + 10% dialyzed FBS, 0.0632 µM | 100 | 97.5 | 105
RPMI 5 mM glucose + 10% dialyzed FBS, 0.19 µM | 104 | 88 | 99
RPMI 5 mM glucose + 10% dialyzed FBS, 0.569 µM | 94.7 | 107 | 98.2
RPMI 5 mM glucose + 10% dialyzed FBS, 1.71 µM | 93.8 | 94.8 | 112
RPMI 5 mM glucose + 10% dialyzed FBS, 5.12 µM | 90.1 | 115 | 103
RPMI 5 mM glucose + 10% dialyzed FBS, 15.4 µM | 92.6 | 106 | 106
RPMI 5 mM glucose + 10% dialyzed FBS, 46.1 µM | 101 | 104 | 96.7

O=C(CCCN1CCN(c2ccc(F)cc2)CC1)NC1c2ccccc2CSc2ccccc21 (stereo not drawn)
AUC of viability dose-response curve
Conditions | [1] | [2] | [3]
HPLM + 10% dialyzed FBS | 427 | 429 | 455
RPMI 5 mM glucose + 10% FBS | 440 | 388 | 434
RPMI 5 mM glucose + 10% dialyzed FBS | 438 | 402 | 434

cell viability [%]
Conditions | [4] | [5] | [6]
HPLM + 10% dialyzed FBS, 0.000781 µM | – | 111 | 120
HPLM + 10% dialyzed FBS, 0.00234 µM | – | 135 | 125
HPLM + 10% dialyzed FBS, 0.00702 µM | – | 116 | 123
HPLM + 10% dialyzed FBS, 0.0211 µM | – | 126 | 119
HPLM + 10% dialyzed FBS, 0.0632 µM | – | 131 | 121
HPLM + 10% dialyzed FBS, 0.19 µM | – | 121 | 120
HPLM + 10% dialyzed FBS, 0.569 µM | – | 33.8 | 117
HPLM + 10% dialyzed FBS, 1.71 µM | – | 126 | 119
HPLM + 10% dialyzed FBS, 5.12 µM | – | 113 | 109
HPLM + 10% dialyzed FBS, 15.4 µM | – | 118 | 102
HPLM + 10% dialyzed FBS, 46.1 µM | – | 89.6 | 71.4
RPMI 5 mM glucose + 10% FBS, 0.000781 µM | 135 | 128 | 126
RPMI 5 mM glucose + 10% FBS, 0.00234 µM | 109 | 112 | 121
RPMI 5 mM glucose + 10% FBS, 0.00702 µM | 108 | 115 | 119
RPMI 5 mM glucose + 10% FBS, 0.0211 µM | 125 | 115 | 126
RPMI 5 mM glucose + 10% FBS, 0.0632 µM | 126 | 120 | 131
RPMI 5 mM glucose + 10% FBS, 0.19 µM | 117 | 118 | 123
RPMI 5 mM glucose + 10% FBS, 0.569 µM | 112 | 51 | 136
RPMI 5 mM glucose + 10% FBS, 1.71 µM | 117 | 103 | 119
RPMI 5 mM glucose + 10% FBS, 5.12 µM | 74 | 101 | 97.4
RPMI 5 mM glucose + 10% FBS, 15.4 µM | 103 | 92 | 83.5
RPMI 5 mM glucose + 10% FBS, 46.1 µM | 71.1 | 49.9 | 55.1
RPMI 5 mM glucose + 10% dialyzed FBS, 0.000781 µM | 121 | 112 | 123
RPMI 5 mM glucose + 10% dialyzed FBS, 0.00234 µM | 120 | 122 | 122
RPMI 5 mM glucose + 10% dialyzed FBS, 0.00702 µM | 125 | 102 | 122
RPMI 5 mM glucose + 10% dialyzed FBS, 0.0211 µM | 114 | 104 | 120
RPMI 5 mM glucose + 10% dialyzed FBS, 0.0632 µM | 118 | 123 | 120
RPMI 5 mM glucose + 10% dialyzed FBS, 0.19 µM | 112 | 112 | 115
RPMI 5 mM glucose + 10% dialyzed FBS, 0.569 µM | 113 | 40.7 | 121
RPMI 5 mM glucose + 10% dialyzed FBS, 1.71 µM | 106 | 113 | 110
RPMI 5 mM glucose + 10% dialyzed FBS, 5.12 µM | 99.9 | 95.3 | 100
RPMI 5 mM glucose + 10% dialyzed FBS, 15.4 µM | 90.8 | 81.2 | 77.7
RPMI 5 mM glucose + 10% dialyzed FBS, 46.1 µM | 58 | 43.6 | 59

CCCNC(=O)Nc1ccc(Oc2ncnc3cc(OC)c(OC)cc23)cc1Cl
AUC of viability dose-response curve
Conditions | [1] | [2] | [3]
HPLM + 10% dialyzed FBS | 419 | 441 | 438
RPMI 5 mM glucose + 10% FBS | 417 | 402 | 433
RPMI 5 mM glucose + 10% dialyzed FBS | 424 | 413 | 440

cell viability [%]
Conditions | [4] | [5] | [6]
HPLM + 10% dialyzed FBS, 0.000781 µM | 96.9 | 101 | 88.2
HPLM + 10% dialyzed FBS, 0.00234 µM | 98 | 93.5 | 97.6
HPLM + 10% dialyzed FBS, 0.00702 µM | 84.1 | 108 | 93.4
HPLM + 10% dialyzed FBS, 0.0211 µM | 95.7 | 104 | 99.9
HPLM + 10% dialyzed FBS, 0.0632 µM | 97.7 | 102 | 98.7
HPLM + 10% dialyzed FBS, 0.19 µM | 87.9 | 101 | 97.3
HPLM + 10% dialyzed FBS, 0.569 µM | 103 | 89.8 | 89
HPLM + 10% dialyzed FBS, 1.71 µM | 81.8 | 98.1 | 76.1
HPLM + 10% dialyzed FBS, 5.12 µM | 71 | 81 | 88.1
HPLM + 10% dialyzed FBS, 15.4 µM | 71.6 | 80.4 | 95.6
HPLM + 10% dialyzed FBS, 46.1 µM | 73.5 | 47.6 | 84.2
RPMI 5 mM glucose + 10% FBS, 0.000781 µM | 89.6 | 118 | 93.9
RPMI 5 mM glucose + 10% FBS, 0.00234 µM | 90.7 | 125 | 97.3
RPMI 5 mM glucose + 10% FBS, 0.00702 µM | 84.7 | 125 | 97.2
RPMI 5 mM glucose + 10% FBS, 0.0211 µM | 95.7 | 146 | 99.8
RPMI 5 mM glucose + 10% FBS, 0.0632 µM | 86 | 117 | 94.7
RPMI 5 mM glucose + 10% FBS, 0.19 µM | 90.6 | 104 | 96.3
RPMI 5 mM glucose + 10% FBS, 0.569 µM | 81.9 | 103 | 87.6
RPMI 5 mM glucose + 10% FBS, 1.71 µM | 90.3 | 98 | 82.8
RPMI 5 mM glucose + 10% FBS, 5.12 µM | 87.4 | 88.2 | 85.2
RPMI 5 mM glucose + 10% FBS, 15.4 µM | 82 | 92.1 | 81.3
RPMI 5 mM glucose + 10% FBS, 46.1 µM | 77.6 | 57.7 | 80.4
RPMI 5 mM glucose + 10% dialyzed FBS, 0.000781 µM | 97.8 | 94 | 98.7
RPMI 5 mM glucose + 10% dialyzed FBS, 0.00234 µM | 92.4 | 109 | 99.5
RPMI 5 mM glucose + 10% dialyzed FBS, 0.00702 µM | 101 | 104 | 94.8
RPMI 5 mM glucose + 10% dialyzed FBS, 0.0211 µM | 96.7 | 113 | 99.7
RPMI 5 mM glucose + 10% dialyzed FBS, 0.0632 µM | 90.9 | 90.7 | 92
RPMI 5 mM glucose + 10% dialyzed FBS, 0.19 µM | 88.4 | 98.5 | 91.1
RPMI 5 mM glucose + 10% dialyzed FBS, 0.569 µM | 86.7 | 92.8 | 91.4
RPMI 5 mM glucose + 10% dialyzed FBS, 1.71 µM | 84.4 | 78.9 | 93.5
RPMI 5 mM glucose + 10% dialyzed FBS, 5.12 µM | 84.7 | 73.3 | 86.8
RPMI 5 mM glucose + 10% dialyzed FBS, 15.4 µM | 81.9 | 75.5 | 86.5
RPMI 5 mM glucose + 10% dialyzed FBS, 46.1 µM | 70.5 | 41.7 | 75.7
